We go through 32 compounds from patent publication US8022102B2, “Unsaturated tetracyclic tetrahydrofuran derivatives” (Janssen Pharmaceutica, NV, priority 2004, dated 2011).

Assay [1] has as its target T1, human cloned 5-HT2C receptor (Homo sapiens, UniProt P28335).
T1 construct: expressed in transfected cells; host or cells: CHO cells
T1 sequence (P28335 33-458): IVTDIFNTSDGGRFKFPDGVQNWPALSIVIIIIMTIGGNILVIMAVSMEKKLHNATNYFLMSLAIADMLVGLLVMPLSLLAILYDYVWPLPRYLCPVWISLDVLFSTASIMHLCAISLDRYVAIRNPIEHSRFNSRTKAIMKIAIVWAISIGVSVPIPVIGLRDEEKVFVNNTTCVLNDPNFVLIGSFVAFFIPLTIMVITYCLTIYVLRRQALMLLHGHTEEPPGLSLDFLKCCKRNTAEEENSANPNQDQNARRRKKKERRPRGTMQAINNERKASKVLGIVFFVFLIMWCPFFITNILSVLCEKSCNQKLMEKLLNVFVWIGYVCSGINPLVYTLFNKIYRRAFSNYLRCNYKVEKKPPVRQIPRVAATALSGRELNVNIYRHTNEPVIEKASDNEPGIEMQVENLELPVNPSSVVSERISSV
Put plainly: In vitro binding affinity for 5-HT2C receptor (radioligand binding). The settings on record: human cloned 5-HT2C receptor, radioligand binding; read-out: h-5HT2C (converted). As to the method:
(§1) During the incubation, the radioligands bind to the receptor. When equilibrium of binding is reached, the receptor bound radioactivity is separated from the non-bound radioactivity, and the receptor bound activity is counted. The interaction of the test compounds with the receptors is assessed in competition binding experiments. Various concentrations of the test compound are added to the incubation mixture containing the tissue preparation and the radioligand. Binding of the radioligand will be inhibited by the test compound in proportion to its binding affinity and its concentration.

The next assay has as its target T2, NET (Rattus norvegicus, UniProt Q9WTR4).
T2 construct: Cortex from rat brain was collected and homogenised; from tissue; host or cells: rat brain cortex
Put plainly: In vitro determination of NET reuptake inhibition ([3H]Nixosetine binding, rat brain cortex). The conditions noted are these: rat brain cortex, [3H]Nixosetine; read-out: NET Reuptake Inhibition (converted). As to the method: Cortex from rat brain was collected and homogenised using an Ultra-Turrax T25 and a Dual homogeniser in ice-cold homogenising buffer containing Tris, NaCl and KCl (50 mM, 120 mM and 5 mM, respectively, pH 7.4) prior to dilution to an appropriate protein concentration optimised for specific and non-specific binding. […] Membrane-bound activity was detected by filtration through a Packard Filtermate harvester onto GF/B Unifilterplates, washed with ice-cold Tris-HCl buffer, containing NaCl and KCl (50 mM, 120 mM and 4 mM; pH 7.4; 6×0.5 ml). Filters were allowed to dry for 24 h before adding scintillation fluid. Scintillation fluid was allowed to saturate filters for 24 h before counting in a Topcount scintillation counter. Percentage specific bound and competition binding curves were calculated using S-Plus software (Insightful).

In assay [2] the target is T3, human Dopamine D2L receptor (Homo sapiens, UniProt P14416).
T3 construct: expressed in transfected cells; host or cells: CHO cells
Put plainly: In vitro binding affinity for human D2L receptor ([3H]Spiperone). The settings on record: human D2L receptor-transfected CHO cell membranes, [3H]Spiperone; read-out: h-D2L (converted). The method, then:
Frozen membranes of human Dopamine D2L receptor-transfected CHO cells were thawed, briefly homogenised using an Ultra-Turrax T25 homogeniser and diluted in Tris-HCl assay buffer containing NaCl, CaCl2, MgCl2, KCl (50, 120, 2, 1, and 5 mM respectively, adjusted to pH 7.7 with HCl) to an appropriate protein concentration optimised for specific and non-specific binding. Radioligand [^3H]Spiperone (NEN, specific activity ˜70 Ci/mmol) was diluted in assay buffer at a concentration of 2 nmol/L. Prepared radioligand (50 μl), along with 50 μl of either the 10% DMSO control, Butaclamol (10^−6 mol/l final concentration), or compound of interest, was then incubated (30 min, 37° C.) with 400 μl of the prepared membrane solution. Membrane-bound activity was filtered through a Packard Filtermate harvester onto GF/B Unifilterplates and washed with ice-cold Tris-HCl buffer (50 mM; pH 7.7; 6×0.5 ml). Filters were allowed to dry before adding scintillation fluid and counting in a Topcount scintillation counter. Percentage specific bound and competition binding curves were calculated using S-Plus software (Insightful).

Assay [3] has as its target T4, human cloned 5-HT2A receptor (Homo sapiens, UniProt P28223).
T4 construct: expressed in transfected cells; host or cells: L929 cells
In words: In vitro binding affinity for 5-HT2A receptor (radioligand binding). The conditions noted are these: human cloned 5-HT2A receptor, radioligand binding; read-out: h-5HT2A (converted). The method, then: as §1, with “concentration. The affinities of the compounds for the 5-HT2 receptors were measured by means of radioligand binding studies conducted with: (a) human cloned 5-HT2A receptor, expressed in L929 cells using [^125I]R91150 as radioligand and (b) human cloned 5-HT2C receptor, expressed in CHO cells using [^3H]mesulergine as radioligand.” for “concentration.”

Where only a bound is given, the exact number is not on record here.

T3 sequence (P14416 whole entry): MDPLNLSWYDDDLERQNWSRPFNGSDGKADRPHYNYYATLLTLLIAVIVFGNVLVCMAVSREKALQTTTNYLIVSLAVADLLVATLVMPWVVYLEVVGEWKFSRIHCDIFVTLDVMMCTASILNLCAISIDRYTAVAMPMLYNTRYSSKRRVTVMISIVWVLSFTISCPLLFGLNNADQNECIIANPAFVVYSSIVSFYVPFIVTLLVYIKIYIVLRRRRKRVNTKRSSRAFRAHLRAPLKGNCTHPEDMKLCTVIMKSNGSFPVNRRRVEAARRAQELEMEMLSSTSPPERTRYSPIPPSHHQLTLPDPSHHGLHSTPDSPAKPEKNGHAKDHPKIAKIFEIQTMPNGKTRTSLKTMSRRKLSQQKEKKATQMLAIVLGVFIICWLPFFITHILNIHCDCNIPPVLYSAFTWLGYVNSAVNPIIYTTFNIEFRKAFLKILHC
T4 sequence (P28223 whole entry): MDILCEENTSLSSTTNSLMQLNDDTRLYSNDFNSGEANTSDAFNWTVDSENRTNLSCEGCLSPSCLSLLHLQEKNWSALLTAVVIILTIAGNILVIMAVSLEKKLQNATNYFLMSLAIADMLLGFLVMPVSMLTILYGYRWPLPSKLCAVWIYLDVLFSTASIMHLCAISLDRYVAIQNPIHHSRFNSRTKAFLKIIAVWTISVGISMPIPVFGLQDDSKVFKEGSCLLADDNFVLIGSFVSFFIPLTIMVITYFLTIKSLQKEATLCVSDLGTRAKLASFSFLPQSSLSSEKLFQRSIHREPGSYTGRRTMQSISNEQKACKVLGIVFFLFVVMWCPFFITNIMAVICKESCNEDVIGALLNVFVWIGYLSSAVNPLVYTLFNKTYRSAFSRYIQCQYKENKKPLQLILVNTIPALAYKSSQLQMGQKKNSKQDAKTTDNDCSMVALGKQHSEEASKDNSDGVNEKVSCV
T2 sequence (Q9WTR4 1-597): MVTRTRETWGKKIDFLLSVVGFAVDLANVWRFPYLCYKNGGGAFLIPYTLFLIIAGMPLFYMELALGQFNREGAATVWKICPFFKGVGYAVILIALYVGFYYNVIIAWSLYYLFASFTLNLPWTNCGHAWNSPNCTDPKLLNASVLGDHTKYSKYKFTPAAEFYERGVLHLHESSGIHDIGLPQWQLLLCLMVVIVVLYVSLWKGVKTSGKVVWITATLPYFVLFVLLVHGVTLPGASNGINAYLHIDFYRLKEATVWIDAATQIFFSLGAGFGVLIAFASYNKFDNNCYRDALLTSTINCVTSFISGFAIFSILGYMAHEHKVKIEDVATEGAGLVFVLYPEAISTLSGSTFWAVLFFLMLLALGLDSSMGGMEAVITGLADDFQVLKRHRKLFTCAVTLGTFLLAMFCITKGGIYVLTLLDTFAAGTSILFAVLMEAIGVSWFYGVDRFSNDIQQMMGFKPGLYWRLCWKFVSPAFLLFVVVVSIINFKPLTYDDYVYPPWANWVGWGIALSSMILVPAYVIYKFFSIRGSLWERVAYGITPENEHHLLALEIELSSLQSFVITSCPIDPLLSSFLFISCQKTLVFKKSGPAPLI

For `CCNCC1CC2=C(O1)c1cc(F)ccc1Cc1ccccc12` (single isomer, unassigned) [Compound 15], the IC50 is 0.000794 µM in assay [1], 0.00316 µM at NET and 0.0398 µM in assay [2].

For the compound `CCNCC1CC2=C(O1)c1cc(F)ccc1Cc1ccccc12` (single isomer, unassigned) [Compound 16], the values for the IC50 (in assay [1]; on NET; in assay [2]) were 0.0126 µM, 0.158 µM and 0.316 µM, respectively.

Consider `CNCC1CC2=C(O1)c1ccccc1C(C)c1ccccc12` (stereo not drawn) [Compound 10], for which the IC50 is 0.0251 µM in assay [1], 0.0501 µM on NET and 1.58 µM in assay [2].

With `CCNCC1CC2=C(O1)c1cc(Br)ccc1Cc1ccccc12` (stereo not drawn) [Compound 17], the results for the IC50 (in assay [1]; on NET; in assay [2]) were 0.00126 µM, 0.1 µM and 0.0251 µM, respectively.

Take `OCCNCC1CC2=C(O1)c1cc(Br)ccc1Cc1ccccc12` (stereo not drawn) [Compound 20]: the IC50 was 0.00158 µM in assay [1], 0.501 µM at NET and 0.0316 µM in assay [2].

With `CN(C)CC1CC2=C(O1)c1cc(Br)ccc1Cc1ccccc12` (stereo not drawn) [Compound 21], the IC50 was 0.000794 µM in assay [1], 0.251 µM on NET and 0.0158 µM in assay [2].

As for `CN(C)C1CCN(CC2CC3=C(O2)c2cc(F)ccc2Cc2ccccc23)C1` (stereo not drawn) [Compound 35], the IC50 in assay [1] is 0.0158 µM; at NET, greater than 10 µM; in assay [2], 0.0398 µM.

For `Fc1ccc2c(c1)C1=C(CC(CN3CCC4(CC3)OCCO4)O1)c1ccccc1C2` (stereo not drawn) [Compound 39], the IC50 was 0.0501 µM in assay [1], greater than 10 µM on NET and 0.0501 µM in assay [2].

Regarding `Fc1ccc2c(c1)C1=C(CC(CN3CCOCC3)O1)c1ccccc1C2` (stereo not drawn) [Compound 43], the IC50 in assay [1] was 0.02 µM; at NET it was 1.58 µM; in assay [2], 0.0794 µM.

In the case of `CS(=O)(=O)N1CCN(CC2CC3=C(O2)c2cc(F)ccc2Cc2ccccc23)CC1` (stereo not drawn) [Compound 44], the IC50 is 0.0501 µM in assay [1], greater than 10 µM on NET and 0.158 µM in assay [2].

Consider `CCS(=O)(=O)N1CCN(CC2CC3=C(O2)c2cc(F)ccc2Cc2ccccc23)CC1` (stereo not drawn) [Compound 46], for which the IC50 is 0.2 µM in assay [1], greater than 10 µM on NET and 0.501 µM in assay [2].

On to `O=C(C1CC1)N1CCN(CC2CC3=C(O2)c2cc(F)ccc2Oc2ccccc23)CC1` (stereo not drawn) [Compound 58], for which the figures for the IC50 (in assay [1]; on NET; in assay [2]) were 0.158 µM, 1.58 µM and 1.58 µM, respectively.

As to `CCOC(=O)N1CCN(CC2CC3=C(O2)c2cc(F)ccc2Cc2ccccc23)CC1` (stereo not drawn) [Compound 61], the IC50 in assay [3] is 0.01 µM; in assay [1], 0.02 µM; in assay [2], 0.2 µM.

As for `CCOC(=O)N1CCN(CC2CC3=C(O2)c2cc(F)ccc2Oc2ccccc23)CC1` (stereo not drawn) [Compound 62], the IC50 in assay [3] was 0.0794 µM; in assay [1], 0.2 µM; in assay [2] it was 0.631 µM.

Take `COc1ccc(C(=O)N2CCN(CC3CC4=C(O3)c3cc(F)ccc3Oc3ccccc34)CC2)cc1` (stereo not drawn) [Compound 74]: the IC50 in assay [3] was 0.0126 µM; in assay [1], 0.1 µM; in assay [2], 0.251 µM.

For `CN(C)C(=O)N1CCN(CC2CC3=C(O2)c2cc(F)ccc2Cc2ccccc23)CC1` (stereo not drawn) [Compound 75], the IC50 is 0.0501 µM in assay [3], 0.316 µM in assay [1] and 0.794 µM in assay [2].

`CN(C)C(=O)N1CCN(CC2CC3=C(O2)c2cc(F)ccc2Oc2ccccc23)CC1` (stereo not drawn) [Compound 76]: the IC50 is 0.0501 µM in assay [3], 0.158 µM in assay [1] and 0.251 µM in assay [2].

Turning to `O=C(NC1CCCCC1)N1CCN(CC2CC3=C(O2)c2cc(F)ccc2Oc2ccccc23)CC1` (stereo not drawn) [Compound 80], the IC50 in assay [3] was 0.0398 µM; in assay [1] it was 0.0794 µM; in assay [2], 1 µM.

As to `CCOC(=O)CNC(=O)N1CCN(CC2CC3=C(O2)c2cc(F)ccc2Oc2ccccc23)CC1` (stereo not drawn) [Compound 82], the IC50 is 0.0398 µM in assay [3], 0.158 µM in assay [1] and 1.58 µM in assay [2].

With `O=C(Nc1ccccc1)N1CCN(CC2CC3=C(O2)c2cc(F)ccc2Cc2ccccc23)CC1` (stereo not drawn) [Compound 83], the values for the IC50 in assay [3], in assay [1] and in assay [2] were 0.01 µM, 0.01 µM and 0.251 µM, respectively.

`O=C(Nc1ccccc1)N1CCN(CC2CC3=C(O2)c2cc(F)ccc2Oc2ccccc23)CC1` (stereo not drawn) [Compound 84]: the IC50 in assay [3] is 0.0316 µM; in assay [1], 0.0501 µM; in assay [2], 1 µM.

With `COc1ccc(NC(=O)N2CCN(CC3CC4=C(O3)c3cc(F)ccc3Cc3ccccc34)CC2)cc1` (stereo not drawn) [Compound 89], the IC50 in assay [3] was 0.002 µM; in assay [1], 0.00316 µM; in assay [2] it was 0.0398 µM.

As to `COc1ccc(NC(=O)N2CCN(CC3CC4=C(O3)c3cc(F)ccc3Oc3ccccc34)CC2)cc1` (stereo not drawn) [Compound 90], the IC50 in assay [3] was 0.00631 µM; in assay [1], 0.0316 µM; in assay [2] it was 0.501 µM.

For the compound `COc1ccccc1NC[C@@H]1CC2=C(O1)c1cc(F)ccc1Cc1ccccc12` [Compound 106], the IC50 is 0.00631 µM in assay [3], 0.0316 µM in assay [1] and greater than 10 µM in assay [2].

With `CN(CC(=O)c1ccccc1)C[C@H]1CC2=C(O1)c1cc(F)ccc1Cc1ccccc12` [Compound 114], the IC50 is 0.00316 µM in assay [3], 0.00158 µM in assay [1] and 0.794 µM in assay [2].

For `CN(CC(N)=O)C[C@H]1CC2=C(O1)c1cc(F)ccc1Cc1ccccc12` [Compound 115], the IC50 in assay [3] is 0.01 µM; in assay [1] it was 0.00398 µM; in assay [2], 1.26 µM.

Consider `CN(CC(=O)N(C)C)C[C@H]1CC2=C(O1)c1cc(F)ccc1Cc1ccccc12` [Compound 117], for which the IC50 is 0.01 µM in assay [3], 0.002 µM in assay [1] and 2.51 µM in assay [2].

Take `CN(CC(=O)Nc1ccccc1)C[C@H]1CC2=C(O1)c1cc(F)ccc1Cc1ccccc12` [Compound 118]: the IC50 is 0.0501 µM in assay [3], 0.01 µM in assay [1] and 0.794 µM in assay [2].

Consider `COc1ccccc1NC(=O)CN(C)C[C@H]1CC2=C(O1)c1cc(F)ccc1Cc1ccccc12` [Compound 119], for which the IC50 in assay [3] is 0.0316 µM; in assay [1], 0.0251 µM; in assay [2] it was 7.94 µM.

With `CNC(=O)/C=C/CN(C)C[C@H]1CC2=C(O1)c1cc(F)ccc1Cc1ccccc12` [Compound 123], the IC50 in assay [3] is 0.002 µM; in assay [1] it was 0.002 µM; in assay [2], 0.0501 µM.

For `CN(Cc1nnn[nH]1)C[C@H]1CC2=C(O1)c1cc(F)ccc1Cc1ccccc12` [Compound 125], the IC50 was 0.00316 µM in assay [3], 0.00251 µM in assay [1] and 1.26 µM in assay [2].

For the compound `CNC(=N)CN(C)CC1CC2=C(O1)c1cc(F)ccc1Cc1ccccc12` (stereo not drawn) [Compound 138], the IC50 in assay [3] was 0.0126 µM; in assay [1], 0.00631 µM; in assay [2] it was 3.16 µM.
